Columns and labels:
DC2.4 cells = assay: In vitro transfection of DC2.4 cells with EGFP mRNA LNP preparation (flow cytometry); format: cell-based, mouse; conditions: DC2.4 cells; for Cell Viability / Positive Rate (EGFP): EGFP mRNA LNP, 200 ng mRNA per well, flow cytometry; for Fluorescence Intensity: EGFP mRNA expression level, normalized based on the sample with the highest fluorescence intensity
Excerpt: The description is based on peripheral blood mononuclear cells PBMC (Shanghai Oribiotech Co., Ltd.), human peripheral blood leukemia T cell Jurkat (ATCC), tumor infiltrating lymphocyte TIL (isolated from resected tumor tissue of a liver cancer patient, the preparation method refers to CN114763530A), mouse bone marrow-derived dendritic cells DC2.4 (Cell Bank of the Chinese Academy of Sciences), and Chinese hamster ovary cells CHO (ATCC) were used as verified cell lines for liposome transfection. PBMC, Jurkat, and TIL cells grew in suspension, while DC2.4 and CHO cells grew by adherent culture. All the operation steps of cell culture must strictly abide by the prescribed procedures, and sterile reagents is used to perform aseptic operations under a sterile workbench. The main steps are as follows: • 1) Cell recovery: the preserved cell cryopreservation solution was taken out of the −80° C. refrigerator, and was immediately put in a 37° C. water bath for rapid and continuous shaking, and was completely melted within one minute. Fresh medium was added to the 15 mL centrifuge tube in advance, and the cell solution was added to the centrifuge tube in a biological safety cabinet. A centrifuge tube of the same quality was taken and placed symmetrically in a centrifuge, centrifuged at a low speed at 1200 rpm for 5 min. After centrifugation, the supernatant was removed, and an appropriate amount of medium was slowly added along the tube wall. After the cells were evenly dispersed by blowing gently, the cell suspension was pipette and added to the culture bottle prepared in advance. The state and distribution of the cells in the early stage of recovery were observed under a microscope. The culture bottle was placed in a 5% CO2 incubator and incubated at 37° C., and the recovery time was recorded. • 2) Cell subculture: Under the microscope, if the cell density in the field of view reaches 80%-90%, the cells can be subcultured. Adherent cells need to be digested with trypsin. In order to avoid the residual serum in the culture medium to reduce the activity of trypsin, DPBS solution was added to wash once after removing the original culture medium. After remove the DPBS solution, trypsin was added to degrade the protein at the junction between cells. This separates the cells for further culture. The cells were gently shaked evenly and put into the incubator for digestion for 2 min. Immediately after the digestion was completed, an appropriate amount of medium was added to the original petri dish to terminate the digestion. Finally, the cells were carefully blowed off using a pipette and blowed until they are evenly dispersed, and then inoculated and subcultured at a certain ratio according to the experimental requirements. […]
• 1) DC2.4 cells recovery: the frozen DC2.4 cells were taken out from the −80° C. refrigerator, put in a 37° C. water bath to quickly thaw the cells, added to the preheated medium after thawing, centrifuged at 1200 rpm for 5 min, the supernatant was discarded, and an appropriate amount of DMEM medium with 10% FBS was added to resuspend the recovered DC2.4, and placed in a 5% CO2 incubator at 37° C. for activation and culture. • 2) According to the experimental arrangement, DC2.4 cells were plated on a 24-well plate one day in advance for cell transfection. Through cell counting, the number of cells and cell viability were recorded, the cell suspension were taken at 2×10^5 cells per well, then a certain volume of DMEM medium containing 10% FBS was added and mixed evenly, 1 mL of mixture was added to each well for subsequent transfection experiment. • 3) After 24 hours, the medium was gently removed 30 minutes in advance by a pipette, 1 mL DPBS was added to each well for washing and then removed, then 300 μL serum-free Opti-MEM medium was added to each well for subsequent transfection experiments.
Subsequent steps are the same as the transfection protocol for PBMC cells. […]

[1] = Entrapment efficiency of LNP preparation encapsulating EGFP mRNA; format: physicochemical; conditions: LNP ionizable lipid/DOPE/cholesterol/DSPE-PEG2000 35/16/46.5/2.5 mol% encapsulating EGFP mRNA
Method: The ionizable lipid compound of Example 1 was dissolved in ethanol with DOPE, cholesterol and DSPE-PEG2000 (all purchased from AVT (Shanghai) Pharmaceutical Technology Co., Ltd.) at a molar ratio of 35:16:46.5:2.5 to prepare ethanol lipid solution, and enhanced green fluorescent protein (EGFP) mRNAs (Shanghai Maximna Pharmaceutical Engineering Co., Ltd., JN-4201) were diluted in 20 mM citrate buffer (pH=6.1) to obtain mRNA aqueous solution. Ethanol lipid solution and mRNA aqueous solution were mixed at a volume ratio of 1:3 by using a microfluidic device (Micro&Nano (Shanghai) Instrument Technology Co., Ltd., model: INano™ML), LNPs were prepared with a weight ratio of approximately 10:1 between total lipids and mRNAs. The medium was replaced by ultrafiltration, ethanol was removed and volumed with DPBS. Finally, the lipid nanoparticles were filtered through a 0.2 μm sterile filter to obtain a LNP formulation encapsulating eGFP mRNA using ionizable lipid/DOPE/cholesterol/DSPE-PEG2000 (35/16/46.5/2.5 mol %), the concentration of mRNAs being 0.002 mg/mL-0.5 mg/mL. […]

[2] = Size and polydispersity index PDI of lipid nanoparticles (Malvern Zetasizer Nano ZS); format: physicochemical; conditions: LNP ionizable lipid/DOPE/cholesterol/DSPE-PEG2000 35/16/46.5/2.5 mol% encapsulating EGFP mRNA; for Particle Size: in nm (unit assumed)
Method: The ionizable lipid compound of Example 1 was dissolved in ethanol with DOPE, cholesterol and DSPE-PEG2000 (all purchased from AVT (Shanghai) Pharmaceutical Technology Co., Ltd.) at a molar ratio of 35:16:46.5:2.5 to prepare ethanol lipid solution, and enhanced green fluorescent protein (EGFP) mRNAs (Shanghai Maximna Pharmaceutical Engineering Co., Ltd., JN-4201) were diluted in 20 mM citrate buffer (pH=6.1) to obtain mRNA aqueous solution. Ethanol lipid solution and mRNA aqueous solution were mixed at a volume ratio of 1:3 by using a microfluidic device (Micro&Nano (Shanghai) Instrument Technology Co., Ltd., model: INano™ML), LNPs were prepared with a weight ratio of approximately 10:1 between total lipids and mRNAs. The medium was replaced by ultrafiltration, ethanol was removed and volumed with DPBS. Finally, the lipid nanoparticles were filtered through a 0.2 μm sterile filter to obtain a LNP formulation encapsulating eGFP mRNA using ionizable lipid/DOPE/cholesterol/DSPE-PEG2000 (35/16/46.5/2.5 mol %), the concentration of mRNAs being 0.002 mg/mL-0.5 mg/mL.
Using Malvern Zetasizer Nano ZS (Malvern UK), the size and polydispersity index PDI of lipid nanoparticles were measured at […].

Row | Entrapment Efficiency [1] [%] | PDI [2] | Particle Size [2] | SMILES | Cell Viability (DC2.4 cells) [%] | Positive Rate (EGFP) (DC2.4 cells) [%] | Fluorescence Intensity (DC2.4 cells)
1 | 95.02 | 0.133 | 96.9 | CCCCCCCCCCC(O)CN(CCN(CCN1CCN(C)CC1)CCN(CC(O)CCCCCCCCCC)CC(O)CCCCCCCCCC)CC(O)CCCCCCCCCC (stereo not drawn) [E-C12] | 84.8 | 56.4 | 0.69
2 | 91.51 | 0.107 | 76.9 | CCCCCCCCCCCCCCC(O)CN(CCN(CCN1CCN(C)CC1)CCN(CC(O)CCCCCCCCCCCCCC)CC(O)CCCCCCCCCCCCCC)CC(O)CCCCCCCCCCCCCC (stereo not drawn) [E-C16] | 94.4 | 59.9 | 0.71
3 | 92.31 | 0.133 | 77.7 | CCCCCCCCCCC(O)CN(CCOCCN(CCOCCN(CC(O)CCCCCCCCCC)CC(O)CCCCCCCCCC)CCN1CCN(C)CC1)CC(O)CCCCCCCCCC (stereo not drawn) [F-C12] | 87.1 | 63.9 | 0.28
4 | 92.39 | 0.099 | 91.9 | CCCCCCCCCCCCCCC(O)CN(CCOCCN(CCOCCN(CC(O)CCCCCCCCCCCCCC)CC(O)CCCCCCCCCCCCCC)CCN1CCN(C)CC1)CC(O)CCCCCCCCCCCCCC (stereo not drawn) [F-C16] | 96.8 | 60.3 | 0.17
5 | 80.61 | 0.081 | 77.2 | CCCCCCCCCCCCCCCCC(O)CN(CCOCCN(CCOCCN(CC(O)CCCCCCCCCCCCCCCC)CC(O)CCCCCCCCCCCCCCCC)CCN1CCN(C)CC1)CC(O)CCCCCCCCCCCCCCCC (stereo not drawn) [F-C18] | 93.5 | 61.5 | 0.67
6 | 89.95 | 0.172 | 89.3 | CCCCCCCCCCC(O)CN(CCOCCOCCN(CCOCCOCCN(CC(O)CCCCCCCCCC)CC(O)CCCCCCCCCC)CCN1CCN(C)CC1)CC(O)CCCCCCCCCC (stereo not drawn) [G-C12] | 92.9 | 83.1 | 0.29
7 | 85.40 | 0.102 | 78.2 | CCCCCCCCCCCCCCC(O)CN(CCOCCOCCN(CCOCCOCCN(CC(O)CCCCCCCCCCCCCC)CC(O)CCCCCCCCCCCCCC)CCN1CCN(C)CC1)CC(O)CCCCCCCCCCCCCC (stereo not drawn) [G-C16] | 94.5 | 79.6 | 0.54
8 | 80.79 | 0.195 | 99.8 | CCCCCCCCCCCCCCCCC(O)CN(CCOCCOCCN(CCOCCOCCN(CC(O)CCCCCCCCCCCCCCCC)CC(O)CCCCCCCCCCCCCCCC)CCN1CCN(C)CC1)CC(O)CCCCCCCCCCCCCCCC (stereo not drawn) [G-C18] | 95.2 | 63.9 | 0.63
9 | 94.13 | 0.136 | 95.9 | CCCCCCCCCCC(O)CN(CCOCCOCCOCCN(CCOCCOCCOCCN(CC(O)CCCCCCCCCC)CC(O)CCCCCCCCCC)CCN1CCN(C)CC1)CC(O)CCCCCCCCCC (stereo not drawn) [H-C12] | 86.0 | 74.3 | 0.78
10 | 86.56 | 0.162 | 95.5 | CCCCCCCCCCCCCCC(O)CN(CCOCCOCCOCCN(CCOCCOCCOCCN(CC(O)CCCCCCCCCCCCCC)CC(O)CCCCCCCCCCCCCC)CCN1CCN(C)CC1)CC(O)CCCCCCCCCCCCCC (stereo not drawn) [H-C16] | >99.0 | 59.0 | 0.77
11 | 80.61 | 0.143 | 73.8 | CCCCCCCCCCCCCCCCC(O)CN(CCOCCOCCOCCN(CCOCCOCCOCCN(CC(O)CCCCCCCCCCCCCCCC)CC(O)CCCCCCCCCCCCCCCC)CCN1CCN(C)CC1)CC(O)CCCCCCCCCCCCCCCC (stereo not drawn) [H-C18] | 97.4 | 81.9 | 0.38
12 | 88.38 | 0.114 | 83.8 | CCCCCCCCCCC(O)CN(CCN(CCN1CCN(CCO)CC1)CCN(CC(O)CCCCCCCCCC)CC(O)CCCCCCCCCC)CC(O)CCCCCCCCCC (stereo not drawn) [I-C12] | 98.5 | 63.9 | 0.05
13 | 87.59 | 0.180 | 120.3 | CCCCCCCCCCCCC(O)CN(CCN(CCN1CCN(CCO)CC1)CCN(CC(O)CCCCCCCCCCCC)CC(O)CCCCCCCCCCCC)CC(O)CCCCCCCCCCCC (stereo not drawn) [I-C14] | 97.0 | 62.7 | 0.05
14 | 91.60 | 0.147 | 96.3 | CCCCCCCCCCCCCCC(O)CN(CCN(CCN1CCN(CCO)CC1)CCN(CC(O)CCCCCCCCCCCCCC)CC(O)CCCCCCCCCCCCCC)CC(O)CCCCCCCCCCCCCC (stereo not drawn) [I-C16] | 81.3 | 68.7 | 0.06
15 | 83.06 | 0.109 | 72.3 | CCCCCCCCCCCCCCCCC(O)CN(CCN(CCN1CCN(CCO)CC1)CCN(CC(O)CCCCCCCCCCCCCCCC)CC(O)CCCCCCCCCCCCCCCC)CC(O)CCCCCCCCCCCCCCCC (stereo not drawn) [I-C18] | 86.0 | 66.4 | 0.04
16 | 92.88 | 0.105 | 99.7 | CCCCCCCCCCC(O)CN(CCOCCN(CCOCCN(CC(O)CCCCCCCCCC)CC(O)CCCCCCCCCC)CCN1CCN(CCO)CC1)CC(O)CCCCCCCCCC (stereo not drawn) [J-C12] | 81.8 | 62.6 | 0.04

From US20250345277A1, “Ionizable Liposome, Preparation Thereof, and Application Thereof in Gene Delivery” (MAXIRNA (ZHEJIANG) TECHNOLOGY CO. LTD., priority 2021, published 2025)
